# Read-outs that look alike come from different tables or passages of the source.
# Columns and labels:
# [1] = tested on: human colon cancer HCT-116 cells; test: Antitumor effect of sulfasalazine in mice bearing subcutaneous HCT-116 tumors; assay type: in vivo, KSN nude mice; settings: 250 mg/kg intraperitoneally once per day; Days 14 and 28 after transplantation; versus saline control; FIG. 1
# Method: The human colon cancer HCT-116 cells that proliferate in a CD44v-dependent manner were administered subcutaneously to KSN nude mice to form tumors. The cells were transplanted into 10 mice. 250 mg/kg of sulfasalazine or 100 μl of saline was injected to each of groups of 5 mice intraperitoneally once per day. Diameter of tumors was measured on Days 14 and 28 after transplantation and their weights were calculated based on the diameters and compared between the two groups.
# T98G cell line = settings: 0 to 1250 μM calculated as sulfasalazine, two days, FIG. 6
# Method: Using the same medium as in (3), the T98G cell line was seeded onto 96-well plates at 3,000 cells/well. On the next day, sulfasalazine and the type-A PEGylated sulfasalazines were added at 0 to 1250 μM calculated in concentrations of sulfasalazine. Two days later, cell viability was measured using a CellTiter-Glo (Promega).
# [2] = Solubility test in pure water and saline (UV absorption at 238 nm); assay type: physicochemical; settings: thermodynamic from solid, room temperature, PEGylated values calculated as sulfasalazine
# Method: The aqueous solutions thus obtained were centrifuged at 8000 rpm for 30 minutes at room temperature, and 50 μL of each supernatant was taken. One microliter of 5N NaOH solution was added to the supernatant and UV absorption (at 238 nm) was measured for the resulting solution, thereby sulfasalazine concentration in the solution (solubility in pure water and saline) was calculated.
smiles,measurement,setting,value
O=C(O)c1cc(/N=N/c2ccc(S(=O)(=O)Nc3ccccn3)cc2)ccc1O [Sulfasalazine],tumor growth (tumor weight calculated from diameter),[1],significantly slower
same,"cell viability, concentration dependence (cytotoxicity)",T98G cell line,substantially identical concentration dependence
same,solubility,"[2]; pure water, water, read-out: Saturated solubility, pure water",50 µg/mL
same,solubility,"[2]; saline, saline or isotonic, read-out: Saturated solubility, saline",37 µg/mL
